# Data: patent US10918891B2, “Cosmetic treatment method for the skin” (SYNTIVIA, priority 2016, dated 2021)
# Marks after values point to notes of the source that are not given here.
# Experiments:
# IL8 = assay: Gene expression of IL8 by quantitative RT-PCR in NHEK; assay type: cell-based, human; settings: (Ia) 3 ppm (10^−5M), 24 hours
# Procedure: In these examples, the expression of the messenger RNA is measured by the technique of quantitative RT-PCR (reverse transcription followed by polymerase chain reaction), after incubation in vitro of the various cell types in the absence or in the presence of compound (Ia).
# This study was carried out on normal human dermal Fibroblasts (NHDF) or normal human epidermal Keratinocytes (NHEK). The compound (Ia) is tested at 10^−5M in an aqueous solution with 0.1% dimethylsulfoxide.
# The cells are cultured at the concentration of 10,000 cells per well of 96-well plates, in the presence of standard culture medium according to the cell type.
# The compound (Ia) is then added at the concentration (3 ppm), for 24 hours.
# The supernatant is eliminated and the cells are taken up in a specific buffer for the extraction of the messenger RNA (mRNA). The mRNA is purified and reverse transcribed in the presence of a commercial reverse transcriptase.
# The complementary DNA (cDNA) obtained is quantified by RT-PCR, by means of suitable primers. The rate of expression of the mRNA is normalised with 5 reference genes.
# The cells used for this example are normal human keratinocytes (NHEK).
# [1] = test system: explants of human skin (NATIVESKIN, Genoskin); assay: Morphological study (haematoxylin and eosin) of human skin explants after repeated UVA irradiation; assay type: cell-based; settings: skin explant; topical (Ia) 100 ppm; three UVA stresses 50 J/cm2; FIG. 3
# Procedure: (§1) In these examples, the protective properties of the compound (Ia) against the damage caused to the DNA and to the extracellular matrix by repeated UVA irradiation, are measured on explants of human skin (NATIVESKIN, Genoskin).
# (§2) Upon reception of the explants, the latter are topically coated with Carbopol® (Lubrizol)+DMSO for the non-UVA control (CTL without stress) and for the control with stress by UVAs (CTL UVA), and with Carbopol®+compound (Ia) at 100 ppm for the test.
# (§3) Over three days, the cells are subjected to three stresses with UVAs at a rate of 50 joules per square centimetre.
# (§4) The first irradiation takes place 24 hours after the treatments. The products are present before, during and after the irradiation. The control without stress is wrapped in aluminium and also placed in the irradiator.
# (§5) During the irradiation, the explants inserted are disposed in a petri dish with PBS. Fresh medium (Genoskin Culture medium) is added after the irradiation.
# (§6) After the third day of irradiation, the explants are cultivated for 24 hours, then collected and fixed for 48 hours in formalin (Sigma). The samples are included in paraffin and cut.
# A morphological study of the skin is implemented.
# The samples of explant are deparaffined, rehydrated and then they are subjected to colouration with haematoxylin and with eosin in order to observe the in-depth effect of the compound (Ia) on the skin. […]
# [2] = test system: normal human Fibroblasts (NHDF); assay: Cellular viability test with cadmium on NHDF; assay type: cell-based; settings: pretreatment 24 h and treatment 24 h with (Ia) 10 ppm, Cd 3 ppm, read at 450 nm, CTL (Cd 3 ppm) 0.95
# Procedure: The cells used for this example are normal human Fibroblasts (NHDF).
# A cellular viability test with cadmium is carried out in order to know the protective effect of the compound (Ia) against polluting stress. Cadmium (Cd) is a toxic and ecotoxic heavy metal found in the environment.
# The cells are cultured at the concentration of 7000 cells per well of 96-well plates.
# The pretreatment is carried out 24 hours after the inoculation of the cells with the compound (Ia) at 10 ppm in an aqueous solution with 0.1% dimethylsulfoxide, or without compound (Ia) for 24 hours.
# After the pretreatment, a treatment with cadmium is carried out. The cells are placed in the presence of cadmium at 3 ppm+compound (Ia) at 10 ppm, or only in the presence of cadmium at 3 ppm (CTL) for 24 hours at 37° C., 5% CO2. The control without stress (CTL without stress) corresponds to the cells not having undergone a treatment with cadmium.
# NHDF cells = assay: DNA double-strand breaks (γ-H2AX) induced by cigarette extract in NHDF; assay type: cell-based, human; settings: (Ia) 10 ppm pretreatment 24 h and treatment 24 h, cigarette extract 1/50, Control 6441, Cigarette extract 11404
# Procedure: The cells used for this example are normal human Fibroblasts (NHDF) and normal human epidermal Keratinocytes (NHEK).
# The cells are cultured at the concentration of 3000 cells per well of 96-well plates in the presence of standard culture medium for NHDF or NHEK (for 24 hours, 37° C., 5% CO2).
# After pretreatment of the cells with the compound (Ia) at 10 ppm for 24 hours, the cells are treated with the cigarette extract diluted to 1/50° with or without compound (Ia) at 10 ppm for 24 hours. […].
# After washing, the samples are then placed in the presence of DAPI for 10 min in order to mark the nuclei, then rinsed once again. The marked proteins are observed and quantified with an automated fluorescence microscope (ArrayScan® (Cellomics®)). The cells treated by the compound (Ia) are then compared to the untreated cells or to the cells only exposed to the cigarette extract.
# MMP1 = MMP1 immunofluorescence on human skin explants after repeated UVA irradiation; assay type: cell-based; settings: skin explant, (Ia) 100 ppm
# Procedure: as §1, §2, §3, §4, §5, §6
# A marking of the protein MMP1 by immunofluorescence on a paraffin section is carried out.
# The samples are prepared for the fluorescent marking. […]
# The sections are mounted on a slide and the fluorescence is quantified using a microscope (Leica DM5000B).
# [3] = test system: explants of human skin (NATIVESKIN, Genoskin); assay: γ-H2Ax immunofluorescence (DNA double-strand breaks) on human skin explants after repeated UVA irradiation; assay type: cell-based; settings: skin explant, topical (Ia) 100 ppm in Carbopol, three UVA stresses 50 J/cm2
# Procedure: as §1, §2, §3, §4
# During the irradiation, the explants inserted are disposed in a petri dish with PBS. Fresh medium (Genoskin Culture medium) is added after the irradiation. […]
# The sections are mounted on a slide, and observed using a microscope (Leica DM5000B). An absence of fluorescence is clearly observed for the sample treated with the compound (Ia) according to the invention, which corresponds to an absence of double-strand breaks of the DNA.
# The fluorescence is quantified by means of the microscope.
structure (smiles),measurement,setting,value
Cc1ncc(CO)c(CNC(=O)/C=C/c2ccc(O)c(O)c2)c1O [Compound (Ia)],Reduction of the gene expression compared to the basal level based on 100% (IL8),IL8,−75%
same,"Morphology of the skin (epidermal barrier, structure of the dermis) after UVA",[1],the epidermal barrier is preserved from the degradation by the UVAs and the structure of the dermis is preserved
same,Cellular viability during the exposure or non-exposure to cadmium (optical density),[2],1.28 optical density
same,Double-strand breaks of the DNA for NHDF (AU),NHDF cells,8752*** AU
same,Average fluorescence intensity of the MMP1 marking (AU),"MMP1; CTL UVA 165.2, CTL without stress 141.6",146.2 AU
same,Cells positive for MMP1 based on 100%,"MMP1; relative to CTL without stress, CTL UVA +16.7%",+3.2%
same,Cells positive for γ-H2Ax marking / total number of cells,[3],59/1282
same,Cells positive for γ-H2Ax marking based on 100%,"[3]; CTL UVA 33.93%, CTL without stress 4.34%",4.76%
